This note sets out measurements from publication PMC5651866, “Halogenated Chrysins Inhibit Dengue and Zika Virus Infectivity” (Scientific Reports, 2017).

Molecules are shown by their SMILES.

A short description of data set [1]: Cytotoxicity study (CellTiter 96 AQueous One) in HepG2 cells. It counts as cell-based. As to conditions: human, HepG2 cells, read-out: Cells viability (%, means ± SEM) HepG2. How it is done: (§1) The cytotoxicity of active compounds was tested on LLC-MK2, Vero, THP-1, HEK-293, HepG2 and C6/36 cell lines. Each cell line was seeded at 1 × 10^4 cells per well in 96-well plates and incubated overnight. The compounds were added at the indicated concentrations and the cells were incubated for 48 h, unless indicated otherwise. Cell viability was analyzed using CellTiter 96® AQueous One Solution Cell Proliferation Assay kit (Promega, Wisconsin-Madison, USA) according to manufacturer’s protocol. The plate was read at the A 450 in a VICTORTM × 3 microplate reader (PerkinElmer, Massachusetts, USA). Percent cell viability in compound-treated wells was calculated using reference DMSO-treated cells as a 100% cell viability control. The CC50 values of LLC/MK2 cells were calculated using nonlinear regression analysis. Results were reported as means and standard error of the means (SEM) of CC50 values of three independent experiments in which each drug concentration was tested in triplicate.

Data set [2] in a line: Stability of compound in DMSO at room temperature by 1H-NMR. The data set is classed as physicochemical. As to conditions: 4 mM in DMSO, sampled at 24, 72, 120 h. Here is the method: The FV13 (6,8-dibromo-5,7-dihydroxyflavone) was tested for the stability by dissolving in DMSO at a concentration of 4 mM FV13 solution. The solution was incubated at room temperature and sampled out at 24, 72, and 120 hours for ^1H-NMR analysis.

Data set [3] can be described thus: Cytotoxicity study (CellTiter 96 AQueous One) in HEK-293 cells. The data set is classed as cell-based. As to conditions: human, HEK-293 cells, read-out: Cells viability (%, means ± SEM) HEK-293. Here is the method:
as §1

Another data set deals with DENV2 (NGC). The experiment in a line: Antiviral efficacy (EC50) in virus infected LLC/MK2 cells, plaque assay. It counts as cell-based, Dengue virus.
Another data set relates to DENV3 (16562). The description is as above. It counts as cell-based, Dengue virus.
The test system of data set [4] is DENV2 infected C6/36 cells. The experiment in a line: Fusion inhibition study in DENV2 infected C6/36 cells. The data set is classed as cell-based, Dengue virus. Particulars: 10 and 25 µM; M.O.I. of 0.02; in words. Here is the method:
We further explored whether the compound would block the viral infectivity by neutralization. We set up the attachment inhibition assay by incubating DENV2 with LLC/MK2 cells at 4 °C for 1 h and FV13 was added before adsorption (pre-attachment), simultaneous with adsorption (co-attachment), and after adsorption (post-attachment) (Fig. 5A). DMSO was used as a mock treatment and added in parallel to FV13 to the experiment. Cells were incubated until cytopathic effects appeared under microscope (Fig. 5B). Supernatants and cells were then analyzed by plaque titration (Fig. 5C) and RT-qPCR (Fig. 5D), respectively. […] Therefore, the major targets of FV13 inhibition appear to function after attachment, possibly at the fusion or translation steps. […] (Supplementary 1). Therefore, fusion was unlikely the major target of FV13. We concluded that one of the major targets of FV13 functions early after infection and attachment and fusion are not critically affected. Flavivirus translation initiates within 1 to 5 hpi[26].
The assay protocol was adapted from Ichiyama et al., 2013 and Poh et al., 20091,2. C6/36 cells were seeded at 2x10^5 cells per well in 24-well plate and incubated overnight. Cells were infected with DENV2 (M.O.I. of 0.02) at 28 °C for 1 h with gentle rocking every 15 min. […] The cells were closely monitored under microscope. […]

Another data set deals with DENV2 NGC. The experiment in a line: Primary screening: compounds added to DENV2 infected LLC/MK2 cells, plaque titration of culture supernatants. The data set is classed as cell-based, Dengue virus. Here is the method:
In this study, we selected 8 flavonoid derivatives (Fig. 1) and tested their effect on DENV2 NGC in a LLC/MK2 cell-based system. Briefly, the compounds at final concentrations of 10 μM and 25 μM in DMSO were added to DENV2 infected LLC/MK2 cells and the effect on viral particle production was measured by plaque titration of the culture supernatants. […] We also tested cytotoxicity of FV13, FV14, and CH1 to verify the viral inhibition in LLC/MK2 cells (Table 2). The viabilities of FV13 treated cells were 81.00 ± 2.69% and 59.40 ± 2.42%, at 10, and 25 µM respectively, whereas the values for FV14 treated cells were 60.24 ± 3.31% and 60.86 ± 3.57%. We also examined Vero, THP-1, HepG2, and HEK-293 cell viabilities in the presence of selected compounds (Table 2).
LLC/MK2 cells were seeded at 5 × 10^4 cells into each well of 24-well plate and incubated overnight at 37 °C under 5% CO2. Cells were infected with DENV2 at the multiplicity of infection (M.O.I.) of 0.1, unless indicated otherwise, for 1 h with gentle rocking every 15 min. Cells were washed with phosphate buffer saline (PBS) and incubated with 1 ml of MEM medium supplemented with 1% FBS as previously described. The compounds were prepared in dimethylsulfoxide (DMSO) at the indicated concentrations before addition to viral infected cells. Supernatants were collected after 5 day incubation and analyzed by plaque titration. In primary screening, DMSO-treated cells served as the untreated control. Compounds that inhibited virus production by ≥90% were selected for further characterization.

Data set [5] can be described thus: Cytotoxicity study (CellTiter 96 AQueous One) in LLC/MK2 cells. The data set is classed as cell-based. As to conditions: rhesus monkey, LLC/MK2 cells. Here is the method:
as §1

In a further data set the test system is LLC/MK2 cells. Described as above. The data set is classed as cell-based. Particulars: LLC/MK2 cell viability at 120 h versus 48 h; in words. How it is done: as §1
The mark [6] stands for this setting: Dengue virus, DENV2, LLC-MK2, read-out: DENV2 inhibition (%, means ± SEM).

Method for DENV2 (NGC): (§2) Compound at various concentrations were added to virus infected LLC/MK2 cells and viral titers were accessed by plaque titration of supernatants as previously described.
(§3) LLC/MK2 cells were seeded at 5 × 10^4 cells into each well of 24-well plate and incubated overnight at 37 °C under 5% CO2. Cells were infected with DENV2 at the multiplicity of infection (M.O.I.) of 0.1, unless indicated otherwise, for 1 h with gentle rocking every 15 min. Cells were washed with phosphate buffer saline (PBS) and incubated with 1 ml of MEM medium supplemented with 1% FBS as previously described. The compounds were prepared in dimethylsulfoxide (DMSO) at the indicated concentrations before addition to viral infected cells. Supernatants were collected after 5 day incubation and analyzed by plaque titration[9].
(§4) Compounds were prepared in DMSO at 8–12 different concentrations and added to virus infected cells as previously described. Supernatants were collected and the EC50 values were calculated from nonlinear regression analysis.
Method for DENV3 (16562): as §2, §3, §4

As a reminder, the EC50 is the midpoint of the concentration-response curve. Higher therefore signals lower potency in that assay. Broadly, the inhibition is the percentage by which the read-out fell short of the control. Turning to `O=c1cc(-c2ccccc2)oc2c(Br)c(O)c(Br)c(O)c12` [FV13, 6,8-dibromo-5,7-dihydroxyflavone], the viability at 48 h, 10 µM in data set [1] (10 μM) came to 85.8 ± 4.7%; in data set [3] (10 μM), 98.1 ± 0.72%; in [5] (10 μM, 48 h, read-out: Cells viability (%, means ± SEM) LLC/MK2), 81 ± 2.69%. Moreover, the viability at 48 h, 25 µM in data set [1] (25 μM) worked out at 84.6 ± 2.79%; in data set [3] (25 μM) it was 89.4 ± 5.6%; in data set [5] (25 μM, 48 h, read-out: Cells viability (%, means ± SEM) LLC/MK2), 59.4 ± 2.42%. The “stability (no decomposition by NMR)” value in data set [2] is listed as “at least 120 h”. Moreover, the “S.I. Selectivity index (CC50/EC50)” value in the data set on DENV2 (NGC) (DENV2 (NGC), CC50 in LLC/MK2) was 30.43; in the data set on DENV3 (16562) (DENV3 (16562), CC50 in LLC/MK2) it was 19.22. In addition, the EC50 in the data set on DENV2 (NGC) (Dengue virus, DENV2, LLC-MK2) came out at 1470 ± 860 nM; with DENV3 (16562) (Dengue virus, DENV3, LLC-MK2) it was 2320 ± 1460 nM. Moreover, the “fusion inhibition (number of fused cells or syncytial phenomenon)” value in data set [4] is “no difference in the number of fused cells or syncytial phenomenon”. Also, in the data set on DENV2 NGC (10 μM and 25 μM, summary of Table 1), the “inhibition of virus production” value is given as above 99%. The inhibition at 10 µM in the data set on DENV2 NGC (setting [6]) was 99.45 ± 0.48%. Besides, in the data set with DENV2 NGC (setting [6]), the inhibition at 25 µM amounted to 99.65 ± 0.41%. Further, the CC50 at 48 h in data set [5] (48 h incubation, read-out: CC50 (cytotoxic concentration)) came to 44300 ± 2900 nM. Besides, in the data set with LLC/MK2 cells, the “effect of long term incubation on cytotoxicity” value is “similarly non-toxic at both 48 and 120 h”.
